Values belong to the molecule of their own block, whether it stands above or below them.
Tests used:
[1] = species: Homo sapiens; test: Selectivity ratio of IC50 for human recombinant MAO-A to IC50 for human recombinant MAO-B
[2] = system: Plasma; test: Drug metabolism in cynomolgus monkey plasma assessed as [18F]fluoroaminoindan metabolite retention time at 163 Mbq, iv measured by HPLC analysis; format: ADME, organism-based, Macaca fascicularis; details: in vivo
[3] = system: Plasma; test: Metabolic stability in cynomolgus monkey plasma assessed as radioactivity remaining at 163 Mbq, iv measured after 120 mins by HPLC analysis; format: ADME, organism-based, Macaca fascicularis; details: in vivo, 2 h
[4] = system: Plasma; test: Drug metabolism in cynomolgus monkey plasma assessed as [18F]b metabolite retention time at 163 Mbq, iv measured by HPLC analysis; format: ADME, organism-based, Macaca fascicularis; details: in vivo
[5] = molecular target: T1, Amine oxidase [flavin-containing] B (Homo sapiens, UniProt P27338); test: Binding affinity to MAO-B in human brain external globus pallidus region at 4 MBq/200 ml after 90 mins by autoradiography analysis; format: tissue-based; details: 1.5 h
T1 sequence (P27338 whole entry): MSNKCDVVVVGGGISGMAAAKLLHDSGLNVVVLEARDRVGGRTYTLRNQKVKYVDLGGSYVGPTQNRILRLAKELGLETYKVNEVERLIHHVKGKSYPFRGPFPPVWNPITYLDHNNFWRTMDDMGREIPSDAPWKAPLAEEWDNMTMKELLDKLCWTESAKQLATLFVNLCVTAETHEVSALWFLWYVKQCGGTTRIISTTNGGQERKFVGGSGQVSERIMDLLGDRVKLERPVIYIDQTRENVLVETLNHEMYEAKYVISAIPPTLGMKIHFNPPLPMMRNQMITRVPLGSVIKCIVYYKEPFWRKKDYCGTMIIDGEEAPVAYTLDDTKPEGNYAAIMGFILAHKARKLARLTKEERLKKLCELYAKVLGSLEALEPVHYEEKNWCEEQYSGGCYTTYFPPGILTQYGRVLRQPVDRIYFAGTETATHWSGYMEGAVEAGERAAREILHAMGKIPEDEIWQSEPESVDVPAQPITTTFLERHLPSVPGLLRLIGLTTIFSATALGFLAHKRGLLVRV

[6] = molecular target: T1, Amine oxidase [flavin-containing] B; test: Inhibition of human recombinant MAO-B expressed in insect cells assessed as kynuramine hydrobromide oxidation after 20 mins by spectrophotometric analysis; format: cell-based
[7] = Chemical stability of the compound in PBS assessed as compound remaining at pH 7.4 after 180 mins; format: physicochemical; details: read-out: Stability
[8] = molecular target: T1, Amine oxidase [flavin-containing] B; test: Binding affinity to MAO-B in human brain caudate nucleus region at 4 MBq/200 ml after 90 mins by autoradiography analysis; details: 1.5 h
[9] = system: Thalamus; test: Drug uptake in cynomolgus monkey thalamus at 163 MBq, iv measured up to 120 mins; format: ADME, organism-based, Macaca fascicularis; details: in vivo, 2 h
[10] = system: Plasma; test: Metabolic stability in cynomolgus monkey plasma assessed as radioactivity remaining at 163 Mbq, iv measured after 45 mins by HPLC analysis; format: ADME, organism-based, Macaca fascicularis; details: in vivo, 0.75 h
[11] = system: Plasma; test: Drug metabolism in cynomolgus monkey plasma assessed as formation of [18F]fluoroaminoindan metabolite at 163 Mbq, iv by HPLC analysis in presence of non-radioactive compound; format: ADME, organism-based, Macaca fascicularis; details: in vivo
[12] = Drug uptake in cynomolgus monkey cortex at 163 MBq, iv measured up to 120 mins; format: ADME, organism-based, Macaca fascicularis; details: in vivo, 2 h
[13] = system: Brain; test: Drug uptake in cynomolgus monkey brain at 163 MBq, iv after 4 mins; format: ADME, organism-based, Macaca fascicularis; details: in vivo
[14] = Drug uptake in cynomolgus monkey striatum at 163 MBq, iv measured up to 120 mins; format: ADME, organism-based, Macaca fascicularis; details: in vivo, 2 h
[15] = molecular target: T1, Amine oxidase [flavin-containing] B; test: Binding affinity to MAO-B in human brain putamen region at 4 MBq/200 ml after 90 mins by autoradiography analysis; details: 1.5 h
[16] = molecular target: T1, Amine oxidase [flavin-containing] B; test: Binding affinity to MAO-B in human brain hippocampus region at 4 MBq/200 ml after 90 mins by autoradiography analysis; format: tissue-based; details: 1.5 h
[17] = system: Plasma; test: Drug metabolism in cynomolgus monkey plasma assessed as [18F]a metabolite retention time at 163 Mbq, iv measured by HPLC analysis; format: ADME, organism-based, Macaca fascicularis; details: in vivo
[18] = molecular target: T2, Amine oxidase [flavin-containing] A (Homo sapiens, UniProt P21397); test: Inhibition of human recombinant MAO-A expressed in insect cells assessed as kynuramine hydrobromide oxidation after 20 mins by spectrophotometric analysis
T2 sequence (P21397 whole entry): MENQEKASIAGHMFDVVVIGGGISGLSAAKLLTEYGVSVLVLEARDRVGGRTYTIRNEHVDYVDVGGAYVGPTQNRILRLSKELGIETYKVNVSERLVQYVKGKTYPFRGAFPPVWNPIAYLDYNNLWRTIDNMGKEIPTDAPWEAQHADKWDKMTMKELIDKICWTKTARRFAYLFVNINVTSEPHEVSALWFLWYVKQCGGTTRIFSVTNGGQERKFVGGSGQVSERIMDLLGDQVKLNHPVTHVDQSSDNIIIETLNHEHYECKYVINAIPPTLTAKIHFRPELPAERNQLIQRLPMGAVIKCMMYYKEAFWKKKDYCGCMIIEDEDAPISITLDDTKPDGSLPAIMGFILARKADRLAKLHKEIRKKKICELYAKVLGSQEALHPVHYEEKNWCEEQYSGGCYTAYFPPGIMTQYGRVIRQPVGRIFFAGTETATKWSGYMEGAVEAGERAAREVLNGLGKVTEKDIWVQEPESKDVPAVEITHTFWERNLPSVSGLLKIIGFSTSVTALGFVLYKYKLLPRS

[19] = Drug uptake in cynomolgus monkey cerebellum at 163 MBq, iv measured up to 120 mins; format: ADME, organism-based, Macaca fascicularis; details: in vivo, 2 h
[20] = molecular target: T1, Amine oxidase [flavin-containing] B; test: Binding affinity to MAO-B in human brain at 4 MBq/200 ml after 90 mins by autoradiography analysis in presence of 10 uM rasagiline; details: 1.5 h
[21] = molecular target: T1, Amine oxidase [flavin-containing] B; test: Binding affinity to MAO-B in human brain thalamus region at 4 MBq/200 ml after 90 mins by autoradiography analysis; format: tissue-based; details: 1.5 h
[22] = molecular target: T1, Amine oxidase [flavin-containing] B; test: Binding affinity to MAO-B in human brain at 4 MBq/200 ml after 90 mins by autoradiography analysis in presence of 10 uM pirlindole; details: 1.5 h
[23] = molecular target: T1, Amine oxidase [flavin-containing] B; test: Binding affinity to MAO-B in human brain at 4 MBq/200 ml after 90 mins by autoradiography analysis in presence of 10 uM L-deprenyl; details: 1.5 h
[24] = system: Brain; test: Drug uptake in cynomolgus monkey brain at 163 MBq, iv measured after wash out; format: ADME, organism-based, Macaca fascicularis; details: in vivo

Ratio IC50 [1]: 84
Structure (SMILES): C#CCN[C@H]1c2ccccc2C[C@@H]1F

Time [2]: 4.6 min | Stability [3]: 20% | Time [4]: 9.2 min | Activity [5]: Active | IC50 [6]: 0.027 µM | remaining at 3 h [7]: > 97% | Activity [8]: Active | Drug uptake [9]: Active | Stability [10]: 50% | Drug metabolism [11]: Active | Drug uptake [12]: Not Active | SUV [13]: 250% | Drug uptake [14]: Active | Activity [15]: Active | Activity [16]: Active | Time [17]: 2.7 min | IC50 [18]: 2.3 µM | Drug uptake [19]: Not Active | Activity [20]: Not Active | Activity [21]: Active | Activity [22]: Active | Activity [23]: Not Active | Drug uptake [24]: Active
Structure (SMILES): C#CCN[C@H]1c2ccccc2C[C@@H]1[18F] [[18F]FLUORORASAGILINE]
